Test results taken from patent US20260226068A1, “IMIDAZOTRIAZINE IL-17A MODULATORS AND USES THEREOF” (DICE ALPHA, INC., priority 2023, published 2026).

Legend:
[1] = molecular target: T1, IL-17A/A (Homo sapiens, UniProt Q16552); experiment: IL-17A/A HEK-Blue cell assay (SEAP reporter); assay type: cell-based; conditions: HEK-Blue IL-17A reporter cells, IL17A/A 5 ng/mL, 20 hours, SEAP read at A630; read-out: HEK-Blue IL17AA (IC50 for IL-17A/A inhibition)
T1 construct: purchased Genscript Z03228
T1 sequence (Q16552 24-155): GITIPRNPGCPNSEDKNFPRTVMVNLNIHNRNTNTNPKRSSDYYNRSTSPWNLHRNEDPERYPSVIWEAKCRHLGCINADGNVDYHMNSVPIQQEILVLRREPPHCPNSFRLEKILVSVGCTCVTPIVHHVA

[2] = molecular target: T2, IL-17A/F (Homo sapiens, UniProt Q16552+Q96PD4); experiment: IL-17A/F HEK-Blue cell assay (SEAP reporter); assay type: cell-based; conditions: HEK-Blue IL-17A reporter cells, IL17A/F 5 ng/mL, 20 hours, SEAP read at A630; read-out: HEK-Blue IL17AF (IC50 for IL-17A/F inhibition)
T2 construct: purchased R&D Systems
T2 sequence (Q16552 24-155): T1 sequence (Q16552 24-155)
T2 sequence (Q96PD4 31-163): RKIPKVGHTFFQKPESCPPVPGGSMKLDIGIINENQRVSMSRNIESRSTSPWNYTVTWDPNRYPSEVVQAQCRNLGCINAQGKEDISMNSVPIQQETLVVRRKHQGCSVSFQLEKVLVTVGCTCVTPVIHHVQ

Structure (SMILES) | IC50 [1] [nM] | IC50 [2] [nM]
CCn1nccc1C(=O)N[C@@H](COC(C)(C)C(F)(F)F)c1cn2nc(C[C@H]3C[C@@H](C(F)(F)F)CNC3=O)c(C3CCOCC3)nc2n1 (single isomer, unassigned) [Compound 159] | < 100 | > 1000
CCn1nccc1C(=O)N[C@@H](CCC(C)(C)C(F)(F)F)c1cn2nc(C[C@H]3C[C@@H](C(F)(F)F)CNC3=O)c(C3CCOCC3)nc2n1 (single isomer, unassigned) [Compound 160] | < 100 | 100 to 1000
CCn1nccc1C(=O)N[C@H](c1cn2nc(C[C@H]3C[C@@H](C(F)(F)F)CNC3=O)c(C3CCOC(C)(C)C3)nc2n1)C1CCC(F)(F)CC1 (single isomer, unassigned) [Compound 163] | < 100 | 100 to 1000
CCn1nccc1C(=O)N[C@H](c1cn2nc(C[C@H]3C[C@@H](C(F)(F)F)CNC3=O)c(C3(C)CCCOC3)nc2n1)C1CCC(F)(F)CC1 (single isomer, unassigned) [Compound 165] | < 100 | 100 to 1000
CCn1nccc1C(=O)N[C@H](c1cn2nc(C[C@H]3C[C@@H](C(F)(F)F)CNC3=O)c(C3(C)CCOC3)nc2n1)C1CCC(F)(F)CC1 (single isomer, unassigned) [Compound 166] | < 100 | 100 to 1000
CCn1nccc1C(=O)N[C@H](c1cn2nc(C[C@H]3C[C@@H](C(F)(F)F)CNC3=O)c(C(C)C(F)(F)F)nc2n1)C1CCC(F)(F)CC1 (single isomer, unassigned) [Compound 174] | < 100 | 100 to 1000
CCn1nccc1C(=O)N[C@H](c1cn2nc(C[C@H]3C[C@@H](C(F)(F)F)CNC3=O)c(C(C)C(F)(F)F)nc2n1)C1CCC(F)(F)CC1 (single isomer, unassigned) [Compound 175] | < 100 | 100 to 1000
CCn1nccc1C(=O)N[C@H](c1cn2nc(C[C@H]3C[C@@H](C(F)(F)F)CNC3=O)c(C3CCOC(C)(C)C3)nc2n1)C1CCC(F)(F)CC1 (single isomer, unassigned) [Compound 176] | < 100 | < 100
CCn1nccc1C(=O)N[C@H](c1cn2nc(C[C@H]3C[C@@H](C(F)(F)F)CNC3=O)c(C3(C)CCCOC3)nc2n1)C1CCC(F)(F)CC1 (single isomer, unassigned) [Compound 177] | < 100 | 100 to 1000
CCn1nccc1C(=O)N[C@H](c1cn2nc(C[C@H]3C[C@@H](C(F)(F)F)CNC3=O)c(C3(C)CCOC3)nc2n1)C1CCC(F)(F)CC1 (single isomer, unassigned) [Compound 178] | < 100 | > 1000
CCn1nccc1C(=O)N[C@H](c1cn2nc(CC3C[C@@H](C(F)(F)F)CNC3=O)c(N3CCO[C@@H](C)C3)nc2n1)[C@@H]1CCCC(F)(F)C1 (single isomer, unassigned) [Compound 207] | < 100 | 100 to 1000
CCn1nccc1C(=O)N[C@H](c1cn2nc(CC3C[C@@H](C(F)(F)F)CNC3=O)c(N3CCO[C@@H](C)C3)nc2n1)[C@@H]1CCCC(F)(F)C1 (single isomer, unassigned) [Compound 208] | < 100 | 100 to 1000
CCn1nccc1C(=O)N[C@@H](CCC(C)(C)C(F)(F)F)c1cn2nc(C[C@H]3C[C@@H](C(F)(F)F)CNC3=O)c(C3CCOCC3)nc2n1 (single isomer, unassigned) [Compound 217] | < 100 | > 1000
CCn1nccc1C(=O)N[C@H](c1cn2nc(C[C@H]3C[C@@H](C(F)(F)F)CNC3=O)c(C[C@@H]3CCOC3)nc2n1)C1CCC(F)(F)CC1 (single isomer, unassigned) [Compound 224] | < 100 | 100 to 1000
CCn1nccc1C(=O)N[C@H](c1cn2nc(C[C@H]3C[C@@H](C(F)(F)F)CNC3=O)c(C[C@H]3CCOC3)nc2n1)C1CCC(F)(F)CC1 (single isomer, unassigned) [Compound 225] | < 100 | 100 to 1000
CCn1nccc1C(=O)N[C@H](c1cn2nc(C[C@H]3C[C@@H](C(F)(F)F)CNC3=O)c([C@@H](C)N3CCOCC3)nc2n1)C1CCC(F)(F)CC1 (single isomer, unassigned) [Compound 227] | < 100 | 100 to 1000
CCn1nccc1C(=O)N[C@H](c1cn2nc(C[C@H]3C[C@@H](C(F)(F)F)CNC3=O)c(CN3CCOC[C@H]3C)nc2n1)C1CCC(F)(F)CC1 (single isomer, unassigned) [Compound 231] | < 100 | 100 to 1000
CCn1nccc1C(=O)N[C@H](c1cn2nc(C[C@H]3C[C@@H](C(F)(F)F)CNC3=O)c(CN3CCOCC3C)nc2n1)C1CCC(F)(F)CC1 (single isomer, unassigned) [Compound 232] | < 100 | 100 to 1000
CCn1nccc1C(=O)N[C@H](c1cn2nc(C[C@H]3C[C@@H](C(F)(F)F)CNC3=O)c([C@H](C)C3CCOCC3)nc2n1)C1CCC(F)(F)CC1 (single isomer, unassigned) [Compound 251] | < 100 | > 1000
CCn1nccc1C(=O)N[C@H](c1cn2nc(C[C@H]3C[C@@H](C(F)(F)F)CNC3=O)c([C@@H](C)C3CCOCC3)nc2n1)C1CCC(F)(F)CC1 (single isomer, unassigned) [Compound 252] | < 100 | 100 to 1000
CCn1nccc1C(=O)N[C@H](c1cn2nc(C[C@H]3C[C@@H](C(F)(F)F)CNC3=O)c([C@@H]3CCC(C)(C)OC3)nc2n1)C1CCC(F)(F)CC1 (single isomer, unassigned) [Compound 256] | < 100 | 100 to 1000
CCn1nccc1C(=O)N[C@H](c1cn2nc(C[C@H]3C[C@@H](C(F)(F)F)CNC3=O)c([C@H]3COCCC3(F)F)nc2n1)C1CCC(F)(F)CC1 (single isomer, unassigned) [Compound 257] | < 100 | 100 to 1000
CCn1nccc1C(=O)N[C@H](c1cn2nc(C[C@H]3C[C@@H](C(F)(F)F)CNC3=O)c([C@H]3CCC(C)(C)OC3)nc2n1)C1CCC(F)(F)CC1 (single isomer, unassigned) [Compound 258] | < 100 | 100 to 1000
CCn1nccc1C(=O)N[C@H](c1cn2nc(C[C@H]3C[C@@H](C(F)(F)F)CNC3=O)c(C3COCCC3(F)F)nc2n1)C1CCC(F)(F)CC1 (single isomer, unassigned) [Compound 259] | < 100 | < 100

Further lines, results first:

IC50 [1] [nM] | IC50 [2] [nM] | Structure (SMILES)
< 100 | 100 to 1000 | CC(C)n1nccc1C(=O)N[C@H](c1cn2nc(C[C@H]3C[C@@H](C(F)(F)F)CNC3=O)c(C3CCOC3)nc2n1)C1CCC(F)(F)CC1 (single isomer, unassigned) [Compound 133]
< 100 | > 1000 | O=C(N[C@H](c1cn2nc(C[C@H]3C[C@@H](C(F)(F)F)CNC3=O)c(C3CCOC3)nc2n1)C1CCC(F)(F)CC1)c1nonc1C1CC1 (single isomer, unassigned) [Compound 134]
< 100 | > 1000 | O=C(N[C@H](c1cn2nc(C[C@H]3C[C@@H](C(F)(F)F)CNC3=O)c(C3CCOC3)nc2n1)C1CCC(F)(F)CC1)c1nonc1C1CC1 (single isomer, unassigned) [Compound 135]
< 100 | < 100 | CCn1nccc1C(=O)N[C@H](c1cn2nc(C[C@H]3C[C@@H](C(F)(F)F)CNC3=O)c(C3CCOC3)nc2n1)[C@H]1CC[C@H](C)CC1 (single isomer, unassigned) [Compound 138]
< 100 | < 100 | CCn1nccc1C(=O)N[C@H](c1cn2nc(C[C@H]3C[C@@H](C(F)(F)F)CNC3=O)c(C3CCOC3)nc2n1)[C@H]1CC[C@H](C)CC1 (single isomer, unassigned) [Compound 139]
< 100 | 100 to 1000 | O=C(N[C@H](c1cn2nc(C[C@H]3C[C@@H](C(F)(F)F)CNC3=O)c(C3CCOCC3)nc2n1)C1CCC(F)(F)CC1)c1conc1C1CC1(F)F (single isomer, unassigned) [Compound 144]
< 100 | 100 to 1000 | O=C(N[C@H](c1cn2nc(C[C@H]3C[C@@H](C(F)(F)F)CNC3=O)c(C3CCOCC3)nc2n1)C1CCC(F)(F)CC1)c1conc1C1CC1(F)F (single isomer, unassigned) [Compound 145]
< 100 | < 100 | CCn1nccc1C(=O)N[C@H](c1cn2nc(C[C@H]3C[C@@H](C(F)(F)F)CNC3=O)c(C3CCOC3)nc2n1)[C@H]1CCCC(F)(F)C1 (single isomer, unassigned) [Compound 203]
< 100 | > 1000 | O=C(N[C@H](c1cn2nc(C[C@H]3C[C@@H](C(F)(F)F)CNC3=O)c(C3CCCOC3)nc2n1)[C@@H]1CCCC(F)(F)C1)c1nonc1C1CC1 (single isomer, unassigned) [Compound 209]
< 100 | 100 to 1000 | O=C(N[C@H](c1cn2nc(C[C@H]3C[C@@H](C(F)(F)F)CNC3=O)c(C3CCCOC3)nc2n1)[C@@H]1CCCC(F)(F)C1)c1nonc1C1CC1 (single isomer, unassigned) [Compound 210]
< 100 | > 1000 | Cn1nccc1C(=O)N[C@H](c1cn2nc(C[C@H]3C[C@@H](C(F)(F)F)CNC3=O)c([C@H]3CCCOC3)nc2n1)C1CCC(F)(F)CC1 (single isomer, unassigned) [Compound 263]
< 100 | 100 to 1000 | Cn1nccc1C(=O)N[C@H](c1cn2nc(C[C@H]3C[C@@H](C(F)(F)F)CNC3=O)c([C@@H]3CCCOC3)nc2n1)C1CCC(F)(F)CC1 (single isomer, unassigned) [Compound 264]
